# Source: paper PMC8011931, “Identification, Structure–Activity Relationship, and Biological Characterization of 2,3,4,5-Tetrahydro-1H-pyrido[4,3-b]indoles as a Novel Class of CFTR Potentiators” (Journal of Medicinal Chemistry, 2020)
# Target: T1, CFTR (Homo sapiens, UniProt P13569)
# T1 construct: primary human bronchial epithelial (HBE) cells, from non-CF individuals; endogenous in cells; host or cells: primary human bronchial epithelial cells from non-CF individuals
# Assay: Short-circuit current recordings on primary HBE cells from non-CF individuals
# Assay type: cell-based
# Description: Subsequently, the ability of compounds to elicit CFTR-mediated chloride secretion was verified on primary human bronchial epithelial (HBE) cells, from non-CF individuals, in short-circuit current experiments. In this respect, it should be noticed that potentiators are also able to stimulate wild-type CFTR, provided that a submaximal cAMP-dependent stimulation is applied.[20],[22] Accordingly, cells were stimulated with a submaximal concentration of the cAMP analogue, CPT-cAMP, followed by increasing concentrations of the potentiator hit.[20],[22]
# Finally, potentiator 39 and VX-770 were further evaluated in primary HBE cells from non-CF individuals, using short-circuit current measurements, to assess the ability of compounds to maximally activate CFTR function in the presence of a submaximal cAMP stimulation. After the addition of amiloride to inhibit sodium absorption through the ENaC channel, the potentiators were added at the maximal effective concentration (1 μM) after which epithelia were stimulated with a submaximal concentration of CPT-cAMP (5 μM), followed by a maximal concentration of the cAMP analogue (100 μM) (Figure 8). We then measured the extent of CFTR-mediated chloride current elicited by submaximal cAMP stimulation in the presence of a potentiator and compared it to total CFTR-mediated chloride current, determined as the current inhibited by CFTR inhibitor-172. In parallel, other epithelia were stimulated only with the two concentrations of the cAMP analogue, in the absence of a potentiator.
# Primary bronchial epithelial cells were cultured as previously described.[58] In brief, epithelial cells were cultured in a serum-free medium (LHC9 mixed with RPMI 1640, 1:1) supplemented with hormones and supplements to support cell number amplification. Then, the cells were seeded at high density on porous membranes (500,000 cells for 1 cm^2 Snapwell inserts, for Ussing chamber studies; 200,000 cells for 0.33 cm^2 Mini-Transwell inserts, for TEER/PD measurements). After 24 h, the serum-free medium was replaced with Dulbecco’s modified Eagle’s medium (DMEM)/Ham’s F12 containing 2% fetal bovine serum (FBS) plus hormones and supplements. Differentiation of cells to form a tight epithelium was monitored by measuring transepithelial electrical resistance and potential difference with an epithelial voltohmmeter (EVOM1, World Precision Instruments). […]
# Differentiated bronchial epithelia on Snapwell inserts were mounted in a Ussing chamber with internal fluid circulation. […] The short-circuit current was recorded with a PowerLab 4/25 (ADInstruments) analog-to-digital converter connected to a personal computer.
# T1 sequence (P13569 whole entry): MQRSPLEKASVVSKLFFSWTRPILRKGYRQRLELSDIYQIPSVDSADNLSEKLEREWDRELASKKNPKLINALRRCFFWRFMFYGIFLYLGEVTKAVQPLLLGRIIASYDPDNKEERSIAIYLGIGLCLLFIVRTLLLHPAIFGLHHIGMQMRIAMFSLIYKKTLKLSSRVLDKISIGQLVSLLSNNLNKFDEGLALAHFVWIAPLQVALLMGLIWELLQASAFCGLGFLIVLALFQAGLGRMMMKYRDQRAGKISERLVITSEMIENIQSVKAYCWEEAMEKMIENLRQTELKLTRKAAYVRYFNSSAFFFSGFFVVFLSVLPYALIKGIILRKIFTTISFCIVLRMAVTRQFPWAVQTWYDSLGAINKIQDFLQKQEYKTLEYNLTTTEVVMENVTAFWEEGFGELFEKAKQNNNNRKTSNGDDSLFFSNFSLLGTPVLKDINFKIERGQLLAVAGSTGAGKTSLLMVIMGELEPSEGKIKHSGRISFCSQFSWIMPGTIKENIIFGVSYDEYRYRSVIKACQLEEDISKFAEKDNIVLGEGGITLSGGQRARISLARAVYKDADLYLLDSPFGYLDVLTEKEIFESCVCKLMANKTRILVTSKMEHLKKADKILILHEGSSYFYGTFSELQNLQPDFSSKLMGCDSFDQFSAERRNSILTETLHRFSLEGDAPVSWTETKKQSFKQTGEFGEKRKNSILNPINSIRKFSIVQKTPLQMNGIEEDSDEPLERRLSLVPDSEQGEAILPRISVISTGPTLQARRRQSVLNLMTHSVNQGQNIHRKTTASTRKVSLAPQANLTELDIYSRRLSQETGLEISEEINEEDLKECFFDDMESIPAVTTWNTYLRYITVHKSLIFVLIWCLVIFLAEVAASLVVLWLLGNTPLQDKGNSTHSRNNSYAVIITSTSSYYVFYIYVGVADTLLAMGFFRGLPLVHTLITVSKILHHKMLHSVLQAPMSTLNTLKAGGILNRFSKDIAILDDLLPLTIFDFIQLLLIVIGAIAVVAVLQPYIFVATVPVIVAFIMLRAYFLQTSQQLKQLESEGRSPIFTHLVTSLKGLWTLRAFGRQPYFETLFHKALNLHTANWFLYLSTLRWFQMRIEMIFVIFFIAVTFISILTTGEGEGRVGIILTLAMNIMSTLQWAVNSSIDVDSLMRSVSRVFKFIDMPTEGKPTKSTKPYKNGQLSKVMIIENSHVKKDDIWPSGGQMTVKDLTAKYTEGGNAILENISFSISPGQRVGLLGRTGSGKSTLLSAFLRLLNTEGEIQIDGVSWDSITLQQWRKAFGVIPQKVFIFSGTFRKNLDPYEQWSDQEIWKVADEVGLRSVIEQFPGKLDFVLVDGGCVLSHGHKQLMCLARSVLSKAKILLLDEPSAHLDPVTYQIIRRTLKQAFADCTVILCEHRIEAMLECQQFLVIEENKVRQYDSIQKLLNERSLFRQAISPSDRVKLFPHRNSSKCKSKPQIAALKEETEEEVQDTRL
compound,measurement,setting,value
"Cc1ccc(F)c2[nH]c3c(c12)CN(C(=O)c1cc(C(F)(F)F)[nH]n1)[C@H](C)C3 [Compound 39, (R)-(6-Fluoro-3,9-dimethyl-1,3,4,5-tetrahydro-2H-pyrido[4,3-b]indol-2-yl)-(5-(trifluoromethyl)-1H-pyrazol-3-yl)methanone]",comparison of effectiveness of potentiators,"1 μM for both compounds, Figure 8B",similarly effective
same,increase of the fraction of CFTR-mediated chloride current activated by submaximal cAMP stimulation,"potentiator 1 μM, CPT-cAMP 5 μM, versus no potentiator",more than 2 fold
